≈ marks a conversion by molar mass, not a printed value. Read-outs that look alike come from different tables or passages of the source.
Legend:
HeLa cells = test: Colony inhibition test on HeLa cells (cytotoxicity); assay type: cell-based; conditions: Homo sapiens; for IC50: read-out: DI50 (dose causing 50% inhibition)
Experimental: Cytotoxicity. Colony inhibition test on HeLa cells.
The test was carried on HeLa according to the method described in J. Med. Chem., 1975, 18, 703. Exponentially growing cells (2 days after inoculation) were treated with several concentrations of daunorubicin, 4-demethoxydaunorubicin, and 4-demethoxy-13-dihydrodaunorubicin.
After 24 hours of exposure to the drugs, the cells were washed, trypsinized and plated (200 cells/plate). On day 6 the colonies containing more than 50 cells were counted. The dose causing 50% inhibition was calculated on the basis of dose-reponsive curves.
Colony inhibition on HeLa cells^a
^b % respect with control

leukemia P 388 = test: Activity against ascitic leukemia P 388 in CDF-1 mice; assay type: in vivo; conditions: i.p. on day 1
Experimental: Activity against ascitic leukemia P 388
The experiments were performed on CDF-1 mice inoculated i.p. with 10^6 leukemic cells/mouse.

Gross leukemia = test: Activity against Gross leukemia in C3H mice; assay type: in vivo; conditions: i.v. on day 1
Experimental: (§1) Activity against Gross leukemia
The experiments were performed on C3H mice inoculated i.v. with 2×10^6 leukemic cells/mouse.
as §1

[1] = system: advanced mammary Carcinoma; test: Activity against advanced mammary carcinoma in C3H female mice; assay type: in vivo; conditions: once a week × 4 from palpable tumor; for growth % on day 48: controls 3476
Experimental: Activity against advanced mammary Carcinoma^a
The experiments were performed on C3H female mice inoculated
with 2 × 10^6 tumor cells/mouse
^a treatment once a week × 4, starting when the tumor was […]

[2] = HeLa, 24 h, read-out: % Colonies (% respect with control)

CC(O)[C@]1(O)Cc2c(O)c3c(c(O)c2[C@@H](O[C@H]2C[C@H](N)[C@H](O)[C@H](C)O2)C1)C(=O)c1ccccc1C3=O (stereo partly shown) [4-demethoxy-13-dihydrodaunorubicin]
activity at 0.00156 µg/mL (HeLa cells; [2]): 100% | activity at 0.0031 µg/mL (HeLa cells; [2]): 45% | activity at 0.0062 µg/mL (HeLa cells; [2]): 9% | activity at 0.0125 µg/mL (HeLa cells; [2]): 0% | IC50 (HeLa cells; HeLa, 24 h): 3 ng/mL (≈ 0.00601 µM) | T/C % (leukemia P 388; 0.14 mg/kg): 130% | toxic deaths (leukemia P 388; 0.14 mg/kg): 0/10 | T/C % (leukemia P 388; 0.22 mg/kg): 160% | toxic deaths (leukemia P 388; 0.22 mg/kg): 0/10 | T/C % (leukemia P 388; 0.33 mg/kg): 170% | toxic deaths (leukemia P 388; 0.33 mg/kg): 0/10 | T/C % (leukemia P 388; 0.5 mg/kg): 170% | toxic deaths (leukemia P 388; 0.5 mg/kg): 3/10 | T/C % (Gross leukemia; 0.84 mg/kg): 200% | toxic deaths (Gross leukemia; 0.84 mg/kg): 0/10 | T/C % (Gross leukemia; 1.26 mg/kg): 250% | toxic deaths (Gross leukemia; 1.26 mg/kg): 0/10 | T/C % (Gross leukemia; 1.9 mg/kg): 258% | toxic deaths (Gross leukemia; 1.9 mg/kg): 0/10 | inhibition % on day 48 ([1]; 0.6 mg/kg): 0% | growth % on day 48 ([1]; 0.6 mg/kg): 5124% | inhibition % on day 48 ([1]; 0.8 mg/kg): 3% | growth % on day 48 ([1]; 0.8 mg/kg): 3374% | inhibition % on day 48 ([1]; 1.2 mg/kg): 65% | growth % on day 48 ([1]; 1.2 mg/kg): 1201%

CC(=O)[C@]1(O)Cc2c(O)c3c(c(O)c2[C@@H](O[C@H]2C[C@H](N)[C@H](O)[C@H](C)O2)C1)C(=O)c1ccccc1C3=O [4-demethoxydaunorubicin]
activity at 0.0015 µg/mL (HeLa cells; HeLa, 1.5 ng/ml, 24 hours exposure, read-out: % Colonies (% respect with control)): 126% | activity at 0.0031 µg/mL (HeLa cells; HeLa, 3.1 ng/ml, 24 hours exposure, read-out: % Colonies (% respect with control)): 73% | activity at 0.0062 µg/mL (HeLa cells; HeLa, 6.2 ng/ml, 24 hours exposure, read-out: % Colonies (% respect with control)): 37% | activity at 0.0125 µg/mL (HeLa cells; HeLa, 12.5 ng/ml, 24 hours exposure, read-out: % Colonies (% respect with control)): 10% | activity at 0.025 µg/mL (HeLa cells; HeLa, 25 ng/ml, 24 hours exposure, read-out: % Colonies (% respect with control)): 0% | IC50 (HeLa cells; HeLa colony inhibition, 24 hours exposure): 5.5 ng/mL (≈ 0.0111 µM) | T/C % (leukemia P 388; 0.33 mg/kg): 150% | toxic deaths (leukemia P 388; 0.33 mg/kg): 0/10 | T/C % (leukemia P 388; 0.5 mg/kg): 170% | toxic deaths (leukemia P 388; 0.5 mg/kg): 0/10 | T/C % (leukemia P 388; 0.75 mg/kg): 155% | toxic deaths (leukemia P 388; 0.75 mg/kg): 3/10 | T/C % (Gross leukemia; 1.9 mg/kg): 233% | toxic deaths (Gross leukemia; 1.9 mg/kg): 0/10 | T/C % (Gross leukemia; 2.5 mg/kg): 233% | toxic deaths (Gross leukemia; 2.5 mg/kg): 0/10 | T/C % (Gross leukemia; 3.3 mg/kg): 266% | toxic deaths (Gross leukemia; 3.3 mg/kg): 0/10 | inhibition % on day 48 ([1]; 0.8 mg/kg): 0% | growth % on day 48 ([1]; 0.8 mg/kg): 4322% | inhibition % on day 48 ([1]; 1.2 mg/kg): 42% | growth % on day 48 ([1]; 1.2 mg/kg): 2029%

COc1cccc2c1C(=O)c1c(O)c3c(c(O)c1C2=O)C[C@@](O)(C(C)=O)C[C@@H]3O[C@H]1C[C@H](N)[C@H](O)[C@H](C)O1 [daunorubicin]
activity at 0.0062 µg/mL (HeLa cells; [2]): 92% | activity at 0.0125 µg/mL (HeLa cells; [2]): 32% | activity at 0.025 µg/mL (HeLa cells; [2]): 3% | IC50 (HeLa cells; HeLa, 24 h): 11 ng/mL (≈ 0.0209 µM) | T/C % (leukemia P 388; 4.4 mg/kg): 180% | toxic deaths (leukemia P 388; 4.4 mg/kg): 0/10 | T/C % (leukemia P 388; 6.6 mg/kg): 168% | toxic deaths (leukemia P 388; 6.6 mg/kg): 2/10 | T/C % (Gross leukemia; 10 mg/kg): 150% | toxic deaths (Gross leukemia; 10 mg/kg): 0/10 | T/C % (Gross leukemia; 15 mg/kg): 183% | toxic deaths (Gross leukemia; 15 mg/kg): 0/10 | T/C % (Gross leukemia; 22.5 mg/kg): 233% | toxic deaths (Gross leukemia; 22.5 mg/kg): 0/10

Source: patent publication US4604381A, “4-demethoxy-13-dihydrodaunorubicin and use thereof” (Farmitalia Carlo Erba S.p.A., priority 1984, dated 1986)
